Assay results as given in US20260062422A1 (Halda Therapeutics OpCo, Inc., priority 2022, published 2026).

How the values were obtained:
T47D cells = test: Cellular growth inhibition assay for T47D cells, CellTiter-Glo; format: cell-based, human; details: 72 hours treatment, CellTiter-Glo 2.0 cell viability
In short: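 Cells are plated at 3000/well and allowed 24 h before treatment. Test compound in medium containing 0.5% DMSO is then added, with DMSO-only wells as negative control, and plates are incubated 72 h at 37 °C. ATP luminescence (CellTiter-Glo 2.0) is then fitted to four parameters to derive GI50.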

[1] = system: T-Rex 293 cell line SC3 cells lacking increased expression of androgen receptor protein; test: Cellular growth inhibition, T-Rex 293 SC3 cells without doxycycline, CellTiter-Glo; format: cell-based; details: T-Rex 293 SC3 cells not exposed to doxycycline, CellTiter-Glo 2.0
In short: (§1)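 Doxycycline-inducible androgen receptor T-Rex 293 clone SC3, seeded at 2500/well in phenol red-free DMEM with 10% charcoal-dextran FBS, without doxycycline or with 10 ng/mL to induce receptor. Compound added after 24 h (0.5% DMSO), 72 h at 37 °C; CellTiter-Glo 2.0 luminescence, GI50 by four-parameter fit.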

VCaP cells = test: Cellular growth inhibition assay for VCaP cells, CellTiter-Glo; format: cell-based, human; details: 72 hours treatment, CellTiter-Glo 2.0
In short: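 GI50 values come from four-parameter curve fits of luminescence data normalized to a zero baseline. Compound, in medium with 0.5% DMSO, was added one day after plating and left for 72 h before CellTiter-Glo 2.0 addition.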

[2] = system: T-Rex 293 cell line SC3 cells having increased expression of androgen receptor protein due to exposure to doxycycline; test: Cellular growth inhibition, T-Rex 293 SC3 cells with doxycycline (androgen receptor induced), CellTiter-Glo; format: cell-based; details: T-Rex 293 SC3 cells with 10 ng/mL doxycycline (increased androgen receptor expression)
In short: as §1

Row | SMILES | GI50 (T47D cells; Homo sapiens, T47D, 72 h) | GI50 ([1]; 72 h) | GI50 (VCaP cells; Homo sapiens, VCaP, 72 h) | GI50 ([2]; 72 h) | GI50 (T47D cells) | GI50 ([1]; 72 hours) | GI50 (VCaP cells) | GI50 ([2]; 72 hours)
1 | Cc1sc2c(c1C)C(c1ccc([C@H]3C[C@@H]([C@H]4CCCN(c5ncc(C(=O)N[C@H]6C(C)(C)[C@H](Oc7ccc(C#N)c(Cl)c7)C6(C)C)cn5)C4)C3)cc1)=N[C@@H](Cc1ncco1)c1nnc(C)n1-2 [Compound I-421] | < 500 nM | > 3000 nM | < 500 nM | < 500 nM | – | – | – | –
2 | Cc1sc2c(c1C)C(c1ccc([C@H]3CCCCN3C(=O)[C@H]3CCCN(c4ncc(C(=O)N[C@H]5C(C)(C)[C@@H](Oc6ccc(C#N)c(Cl)c6)C5(C)C)cn4)C3)cc1)=N[C@@H](Cc1ncco1)c1nnc(C)n1-2 [Compound I-359] | > 3000 nM | > 3000 nM | < 500 nM | < 500 nM | – | – | – | –
3 | Cc1sc2c(c1C)C(c1ccc(C3CC(N4CCN(c5ccc(C(=O)N[C@H]6C(C)(C)[C@H](Oc7ccc(C#N)c(Cl)c7)C6(C)C)nc5)CC4)C3)cc1)=N[C@@H](C)c1nnc(C)n1-2 (some centres unmarked) [Compound I-577] | < 500 nM | 500 to 1500 nM | < 500 nM | < 500 nM | – | – | – | –
4 | Cc1sc2c(c1C)C(c1ccc(O[C@H]3CC[C@]4(CCCN(c5ncc(C(=O)N[C@H]6C(C)(C)[C@H](Oc7ccc(C#N)c(Cl)c7)C6(C)C)cn5)C4)CC3)cc1)=N[C@@H](Cc1ncco1)c1nnc(C)n1-2 [Compound I-171] | > 3000 nM | < 500 nM | < 500 nM | < 500 nM | – | – | – | –
5 | Cc1sc2c(c1C)C(c1ccc(C(=O)N3CCC(Cc4ncc(C(=O)N[C@H]5C(C)(C)[C@H](Oc6ccc(C#N)c(Cl)c6)C5(C)C)cn4)CC3)cc1)=N[C@H](Cc1ncco1)c1nnc(C)n1-2 [Compound I-289] | > 3000 nM | > 3000 nM | 500 to 1500 nM | < 500 nM | – | – | – | –
6 | Cc1sc2c(c1C)C(c1ccc(C[C@H]3C[C@@H](OC4CCN(c5ncc(C(=O)N[C@H]6C(C)(C)[C@H](Oc7ccc(C#N)c(Cl)c7)C6(C)C)cn5)CC4)C3)cc1)=N[C@@H](Cc1ncco1)c1nnc(C)n1-2 [Compound I-426] | < 500 nM | > 3000 nM | < 500 nM | < 500 nM | – | – | – | –
7 | COCC[C@@H]1N=C(c2ccc(CC3CC4(CCN(c5ncc(C(=O)N[C@H]6C(C)(C)[C@H](Oc7ccc(C#N)c(Cl)c7)C6(C)C)cn5)CC4)C3)cc2)c2c(sc(C)c2C)-n2c(C)nnc21 [Compound I-585] | < 500 nM | > 3000 nM | < 500 nM | < 500 nM | – | – | – | –
8 | Cc1sc2c(c1C)C(c1ccc(N3CC(C4CCN(c5ncc(C(=O)N[C@H]6C(C)(C)[C@H](Oc7ccc(C#N)c(Cl)c7)C6(C)C)cn5)C4)C3)cc1)=N[C@@H](C)c1nnc(C)n1-2 (some centres unmarked) [Compound I-616] | < 500 nM | < 500 nM | < 500 nM | < 500 nM | – | – | – | –
9 | COCC[C@@H]1N=C(c2ccc(OC3CC4(CCCN(c5ncc(C(=O)N[C@H]6C(C)(C)[C@@H](Oc7ccc(C#N)c(Cl)c7)C6(C)C)cn5)C4)C3)cc2)c2c(sc(C)c2C)-n2c(C)nnc21 [Compound I-569] | > 3000 nM | > 3000 nM | < 500 nM | < 500 nM | – | – | – | –
10 | Cc1sc2c(c1C)C(c1ccc(C3CC(N4CCN(c5cnc(C(=O)N[C@H]6C(C)(C)[C@H](Oc7ccc(C#N)c(Cl)c7)C6(C)C)cn5)CC4)C3)cc1)=N[C@@H](C)c1nnc(C)n1-2 (some centres unmarked) [Compound I-573] | < 500 nM | 500 to 1500 nM | < 500 nM | < 500 nM | – | – | – | –
11 | Cc1sc2c(c1C)C(c1ccc(CNC(=O)[C@@H]3CCCN(c4ncc(C(=O)N[C@H]5C(C)(C)[C@H](Oc6ccc(C#N)c(Cl)c6)C5(C)C)cn4)C3)cc1)=N[C@@H](Cc1ncco1)c1nnc(C)n1-2 [Compound I-265] | < 500 nM | 1500 to 3000 nM | < 500 nM | < 500 nM | – | – | – | –
12 | Cc1sc2c(c1C)C(c1ccc(C[C@H]3C[C@@]4(CN(c5ncc(C(=O)N[C@H]6C(C)(C)[C@H](Oc7ccc(C#N)c(Cl)c7)C6(C)C)cn5)CCO4)C3)cc1)=N[C@@H](Cc1ncco1)c1nnc(C)n1-2 [Compound I-244] | > 3000 nM | > 3000 nM | > 3000 nM | < 500 nM | – | – | – | –
13 | Cc1sc2c(c1C)C(c1ccc(CC3CC4(CCN(c5cnc(C(=O)N[C@H]6C(C)(C)[C@H](Oc7ccc(C#N)c(Cl)c7)C6(C)C)cn5)CC4)C3)cc1)=N[C@@H](Cc1ncco1)c1nnc(C)n1-2 [Compound I-547] | < 500 nM | < 500 nM | > 3000 nM | < 500 nM | – | – | – | –
14 | Cc1sc2c(c1C)C(c1ccc(N3CCC4(CC3)CC(Cc3ncc(C(=O)N[C@H]5C(C)(C)[C@H](Oc6ccc(C#N)c(Cl)c6)C5(C)C)cn3)C4)cc1)=NC(Cc1ncco1)c1nnc(C)n1-2 (some centres unmarked) [Compound I-460] | – | – | – | – | < 500 nM | 500 to 1500 nM | < 500 nM | < 500 nM
15 | Cc1sc2c(c1C)C(c1ccc(OC3CC(CC4CCN(c5ncc(C(=O)N[C@H]6C(C)(C)[C@H](Oc7ccc(C#N)c(Cl)c7)C6(C)C)cn5)CC4)C3)cc1)=N[C@@H](Cc1ncco1)c1nnc(C)n1-2 (some centres unmarked) [Compound I-189] | < 500 nM | > 3000 nM | < 500 nM | < 500 nM | – | – | – | –
16 | Cc1sc2c(c1C)C(c1ccc(N3CCC[C@H](C(=O)N4CCC[C@@H](c5ncc(C(=O)N[C@H]6C(C)(C)[C@H](Oc7ccc(C#N)c(Cl)c7)C6(C)C)cn5)C4)C3)cc1)=N[C@@H](Cc1ncco1)c1nnc(C)n1-2 [Compound I-337] | < 500 nM | 500 to 1500 nM | < 500 nM | < 500 nM | – | – | – | –
17 | Cc1noc2c1-c1ccccc1C(c1ccc(O[C@H]3C[C@]4(CN(c5ncc(C(=O)N[C@H]6C(C)(C)[C@H](Oc7ccc(C#N)c(Cl)c7)C6(C)C)cn5)CCO4)C3)cc1)=N[C@H]2Cc1ncco1 [Compound I-223] | > 3000 nM | > 3000 nM | > 3000 nM | < 500 nM | – | – | – | –
18 | CCNC(=O)C[C@@H]1N=C(c2ccc(CCCN3CCN(c4ncc(C(=O)N[C@H]5C(C)(C)[C@H](Oc6ccc(C#N)c(Cl)c6)C5(C)C)cn4)CC3)cc2)c2c(sc(C)c2C)-n2c(C)nnc21 [Compound I-99] | < 500 nM | 500 to 1500 nM | 500 to 1500 nM | < 500 nM | – | – | – | –
19 | Cc1sc2c(c1C)C(c1ccc(OC3CC4(CCN(c5ncc(C(=O)N[C@H]6C(C)(C)[C@H](Oc7ccc(C#N)c(Cl)c7)C6(C)C)cn5)CC4)C3)cc1)=NC(C(F)(F)F)c1nnc(C)n1-2 (some centres unmarked) [Compound I-600] | > 3000 nM | > 3000 nM | – | > 3000 nM | – | – | > 3000 nM | –
20 | Cc1sc2c(c1C)C(c1ccc(N3CCC4(CC3)CC(Cc3ncc(C(=O)N[C@H]5C(C)(C)[C@H](Oc6ccc(C#N)c(Cl)c6)C5(C)C)cn3)C4)cc1)=NC(Cc1ncco1)c1nnc(C)n1-2 (some centres unmarked) [Compound I-459] | – | – | – | < 500 nM | 1500 to 3000 nM | > 3000 nM | > 3000 nM | –
21 | Cc1sc2c(c1C)C(c1ccc(OC3CN(CC4CCN(c5ncc(C(=O)N[C@H]6C(C)(C)[C@H](Oc7ccc(C#N)c(Cl)c7)C6(C)C)cn5)CC4)C3)cc1)=N[C@@H](Cc1ncco1)c1nnc(C)n1-2 [Compound I-168] | 500 to 1500 nM | > 3000 nM | > 3000 nM | < 500 nM | – | – | – | –
22 | COCC[C@@H]1N=C(c2ccc(OC3CC4(CCCN(c5ncc(C(=O)N[C@H]6C(C)(C)[C@@H](Oc7ccc(C#N)c(Cl)c7)C6(C)C)cn5)C4)C3)cc2)c2c(sc(C)c2C)-n2c(C)nnc21 [Compound I-570] | – | – | – | – | > 3000 nM | > 3000 nM | < 500 nM | < 500 nM
23 | Cc1sc2c(c1C)C(c1ccc(CC3CCC4(C3)CN(c3ncc(C(=O)N[C@H]5C(C)(C)[C@H](Oc6ccc(C#N)c(Cl)c6)C5(C)C)cn3)CCO4)cc1)=N[C@@H](C)c1nnc(C)n1-2 (some centres unmarked) [Compound I-620] | – | – | – | – | 500 to 1500 nM | < 500 nM | < 500 nM | < 500 nM
